Holding throughout (format): cell-based, Diaphorina citri
Conditions in all cases: Table 1; odor diluted to 1%, 50 μL in cartridge

In assay [1] the test system is neuron 2C (rhinarial plate on flagellomere 2). Nature of the assay: single-sensillum electrophysiology, odor response of neuron 2C.
Assay [2] relates to neuron 4B (rhinarial plate on flagellomere 4).
Assay [3] deals with neuron 2B (rhinarial plate on flagellomere 2). Nature of the assay: single-sensillum electrophysiology, odor response of neuron 2B.
Assay [4] concerns neuron 2A (rhinarial plate on flagellomere 2). Description: single-sensillum electrophysiology, odor response of neuron 2A. Further: key: 0, no response; +, >50 spikes/second; ++, >100 spikes/second; +++, >150 spikes/second.
For assay [5], the system named is neuron 7C (rhinarial plate on flagellomere 7). Nature of the assay: single-sensillum electrophysiology, odor response of neuron 7C.
The subject of assay [6] is neuron 6C (rhinarial plate on flagellomere 6). Description: single-sensillum electrophysiology, odor response of neuron 6C.
The subject of assay [7] is neuron 7B (rhinarial plate on flagellomere 7).
For assay [8], the system named is neuron 7A (rhinarial plate on flagellomere 7). Nature of the assay: single-sensillum electrophysiology, odor response of neuron 7A. Further: key: 0, no response; +, >50 spikes/second; ++, >100 spikes/second; +++, >150 spikes/second.
In assay [9] the test system is neuron 6A (rhinarial plate on flagellomere 6). Nature of the assay: single-sensillum electrophysiology, odor response of neuron 6A.
Assay [10] deals with neuron 4A (rhinarial plate on flagellomere 4). Nature of the assay: single-sensillum electrophysiology, odor response of neuron 4A.
The test system of assay [11] is neuron 4C (rhinarial plate on flagellomere 4). Description: single-sensillum electrophysiology, odor response of neuron 4C.
Assay [12] deals with neuron 6B (rhinarial plate on flagellomere 6). Nature of the assay: single-sensillum electrophysiology, odor response of neuron 6B.

As to `CCC/C=C\CO` [Z2-hexanol], in assay [1], the “odor response (frequency of action potentials during stimulus minus baseline), 2C” value stood at 0. The “odor response (frequency of action potentials during stimulus minus baseline), 4B” value in assay [2] was “+ (+, >50 spikes/second)”. In addition, the “odor response (frequency of action potentials during stimulus minus baseline), 2B” value in assay [3] is listed as 0. Moreover, the “odor response (frequency of action potentials during stimulus minus baseline), 2A” value in [4] was found to be 0. Besides, the “odor response (frequency of action potentials during stimulus minus baseline), 7C” value in assay [5] turned out to be 0. The “odor response (frequency of action potentials during stimulus minus baseline), 6C” value in assay [6] was 0. The “odor response (frequency of action potentials during stimulus minus baseline), 7B” value in assay [7] was found to be 0. In assay [8], the “odor response (frequency of action potentials during stimulus minus baseline), 7A” value is recorded as 0. Also, the “odor response (frequency of action potentials during stimulus minus baseline), 6A” value in assay [9] came out at 0. The “odor response (frequency of action potentials during stimulus minus baseline), 4A” value in assay [10] is reported as 0. In [11], the “odor response (frequency of action potentials during stimulus minus baseline), 4C” value stood at 0. In addition, the “odor response (frequency of action potentials during stimulus minus baseline), 6B” value in assay [12] is given as “+ (+, >50 spikes/second)”.
For the molecule `CC(=O)OCC(C)C` [isobutyl acetate], the “odor response (frequency of action potentials during stimulus minus baseline), 2C” value in [1] was 0. In assay [2], the “odor response (frequency of action potentials during stimulus minus baseline), 4B” value is reported as “++ (++, >100 spikes/second)”. Besides, the “odor response (frequency of action potentials during stimulus minus baseline), 2B” value in assay [3] came to 0. In addition, the “odor response (frequency of action potentials during stimulus minus baseline), 2A” value in [4] is 0. Besides, the “odor response (frequency of action potentials during stimulus minus baseline), 7C” value in assay [5] is reported as 0. In [6], the “odor response (frequency of action potentials during stimulus minus baseline), 6C” value is recorded as 0. Besides, the “odor response (frequency of action potentials during stimulus minus baseline), 7B” value in [7] came out at 0. In addition, the “odor response (frequency of action potentials during stimulus minus baseline), 7A” value in assay [8] is 0. The “odor response (frequency of action potentials during stimulus minus baseline), 6A” value in [9] is 0. For the same molecule, the “odor response (frequency of action potentials during stimulus minus baseline), 4A” value in assay [10] is 0. For the same molecule, the “odor response (frequency of action potentials during stimulus minus baseline), 4C” value in assay [11] worked out at 0. The “odor response (frequency of action potentials during stimulus minus baseline), 6B” value in [12] is “++ (++, >100 spikes/second)”.
For the molecule `C/C1=C\CC/C(C)=C/CC(C)(C)/C=C/C1` [α-humulene], the “odor response (frequency of action potentials during stimulus minus baseline), 2C” value in [1] came to 0. In addition, the “odor response (frequency of action potentials during stimulus minus baseline), 4B” value in assay [2] was found to be 0. Besides, the “odor response (frequency of action potentials during stimulus minus baseline), 2B” value in assay [3] is “++ (++, >100 spikes/second)”. The “odor response (frequency of action potentials during stimulus minus baseline), 2A” value in assay [4] came to 0. Further, the “odor response (frequency of action potentials during stimulus minus baseline), 7C” value in assay [5] is recorded as 0. Also, the “odor response (frequency of action potentials during stimulus minus baseline), 6C” value in assay [6] was 0. Further, in assay [7], the “odor response (frequency of action potentials during stimulus minus baseline), 7B” value is given as “++ (++, >100 spikes/second)”. Besides, the “odor response (frequency of action potentials during stimulus minus baseline), 7A” value in [8] is recorded as 0. Besides, the “odor response (frequency of action potentials during stimulus minus baseline), 6A” value in assay [9] was determined as 0. In assay [10], the “odor response (frequency of action potentials during stimulus minus baseline), 4A” value is 0. In addition, the “odor response (frequency of action potentials during stimulus minus baseline), 4C” value in [11] is 0. Besides, the “odor response (frequency of action potentials during stimulus minus baseline), 6B” value in [12] turned out to be 0.
Take `CC(C)=CCCC(C)=CC=O` [citral]: the “odor response (frequency of action potentials during stimulus minus baseline), 2C” value in assay [1] is recorded as “++ (++, >100 spikes/second)”. Also, in assay [2], the “odor response (frequency of action potentials during stimulus minus baseline), 4B” value is given as 0. Further, the “odor response (frequency of action potentials during stimulus minus baseline), 2B” value in [3] came to 0. Besides, in assay [4], the “odor response (frequency of action potentials during stimulus minus baseline), 2A” value came to 0. The “odor response (frequency of action potentials during stimulus minus baseline), 7C” value in assay [5] is recorded as 0. Further, in [6], the “odor response (frequency of action potentials during stimulus minus baseline), 6C” value was found to be 0. The “odor response (frequency of action potentials during stimulus minus baseline), 7B” value in assay [7] is 0. Also, the “odor response (frequency of action potentials during stimulus minus baseline), 7A” value in assay [8] is 0. In addition, the “odor response (frequency of action potentials during stimulus minus baseline), 6A” value in assay [9] is listed as 0. In assay [10], the “odor response (frequency of action potentials during stimulus minus baseline), 4A” value is 0. In assay [11], the “odor response (frequency of action potentials during stimulus minus baseline), 4C” value was found to be 0. Moreover, the “odor response (frequency of action potentials during stimulus minus baseline), 6B” value in assay [12] worked out at 0.
In the case of `CCCCCOC(C)=O` [pentyl acetate], in assay [1], the “odor response (frequency of action potentials during stimulus minus baseline), 2C” value is reported as “++ (++, >100 spikes/second)”. Also, the “odor response (frequency of action potentials during stimulus minus baseline), 4B” value in [2] was “+ (+, >50 spikes/second)”. The “odor response (frequency of action potentials during stimulus minus baseline), 2B” value in assay [3] was determined as 0. In addition, the “odor response (frequency of action potentials during stimulus minus baseline), 2A” value in assay [4] is recorded as 0. The “odor response (frequency of action potentials during stimulus minus baseline), 7C” value in [5] is listed as 0. In [6], the “odor response (frequency of action potentials during stimulus minus baseline), 6C” value is on record as 0. For the same molecule, the “odor response (frequency of action potentials during stimulus minus baseline), 7B” value in assay [7] is reported as 0. The “odor response (frequency of action potentials during stimulus minus baseline), 7A” value in assay [8] is given as 0. The “odor response (frequency of action potentials during stimulus minus baseline), 6A” value in assay [9] is listed as 0. Besides, the “odor response (frequency of action potentials during stimulus minus baseline), 4A” value in [10] was found to be 0. The “odor response (frequency of action potentials during stimulus minus baseline), 4C” value in assay [11] was 0. Besides, the “odor response (frequency of action potentials during stimulus minus baseline), 6B” value in assay [12] is “++ (++, >100 spikes/second)”.
For the molecule `CCCCCCCCO` [1-octanol], the “odor response (frequency of action potentials during stimulus minus baseline), 2C” value in assay [1] turned out to be 0. In [2], the “odor response (frequency of action potentials during stimulus minus baseline), 4B” value is given as “+ (+, >50 spikes/second)”. The “odor response (frequency of action potentials during stimulus minus baseline), 2B” value in assay [3] worked out at 0. Moreover, the “odor response (frequency of action potentials during stimulus minus baseline), 2A” value in assay [4] was 0. For the same molecule, the “odor response (frequency of action potentials during stimulus minus baseline), 7C” value in assay [5] is 0. Besides, the “odor response (frequency of action potentials during stimulus minus baseline), 6C” value in assay [6] came out at 0. Moreover, the “odor response (frequency of action potentials during stimulus minus baseline), 7B” value in assay [7] came to 0. In addition, the “odor response (frequency of action potentials during stimulus minus baseline), 7A” value in assay [8] was found to be 0. For the same molecule, the “odor response (frequency of action potentials during stimulus minus baseline), 6A” value in assay [9] worked out at 0. Also, the “odor response (frequency of action potentials during stimulus minus baseline), 4A” value in assay [10] was found to be 0. Moreover, in assay [11], the “odor response (frequency of action potentials during stimulus minus baseline), 4C” value was found to be 0. In addition, the “odor response (frequency of action potentials during stimulus minus baseline), 6B” value in assay [12] was “+ (+, >50 spikes/second)”.
On to `CCCC(C)=O` [2-pentanone], for which the “odor response (frequency of action potentials during stimulus minus baseline), 2C” value in [1] was found to be 0. For the same molecule, the “odor response (frequency of action potentials during stimulus minus baseline), 4B” value in assay [2] is on record as “+ (+, >50 spikes/second)”. The “odor response (frequency of action potentials during stimulus minus baseline), 2B” value in assay [3] came to 0. Also, in assay [4], the “odor response (frequency of action potentials during stimulus minus baseline), 2A” value worked out at 0. In addition, the “odor response (frequency of action potentials during stimulus minus baseline), 7C” value in assay [5] came out at 0. Moreover, the “odor response (frequency of action potentials during stimulus minus baseline), 6C” value in [6] came to 0. Moreover, in assay [7], the “odor response (frequency of action potentials during stimulus minus baseline), 7B” value is listed as 0. In addition, the “odor response (frequency of action potentials during stimulus minus baseline), 7A” value in [8] is given as 0. In addition, in [9], the “odor response (frequency of action potentials during stimulus minus baseline), 6A” value worked out at 0. Besides, in assay [10], the “odor response (frequency of action potentials during stimulus minus baseline), 4A” value is 0. Moreover, the “odor response (frequency of action potentials during stimulus minus baseline), 4C” value in [11] is listed as 0. Further, the “odor response (frequency of action potentials during stimulus minus baseline), 6B” value in assay [12] was “+ (+, >50 spikes/second)”.
For the molecule `CCCCCCCC=O` [octanal], the “odor response (frequency of action potentials during stimulus minus baseline), 2C” value in assay [1] stood at 0. The “odor response (frequency of action potentials during stimulus minus baseline), 4B” value in assay [2] amounted to 0. Further, in assay [3], the “odor response (frequency of action potentials during stimulus minus baseline), 2B” value was “+ (+, >50 spikes/second)”. Also, in assay [4], the “odor response (frequency of action potentials during stimulus minus baseline), 2A” value was 0. The “odor response (frequency of action potentials during stimulus minus baseline), 7C” value in assay [5] amounted to 0. The “odor response (frequency of action potentials during stimulus minus baseline), 6C” value in assay [6] is “+ (+, >50 spikes/second)”. Further, the “odor response (frequency of action potentials during stimulus minus baseline), 7B” value in [7] is on record as “++ (++, >100 spikes/second)”. In assay [8], the “odor response (frequency of action potentials during stimulus minus baseline), 7A” value is reported as 0. The “odor response (frequency of action potentials during stimulus minus baseline), 6A” value in [9] is “+ (+, >50 spikes/second)”. The “odor response (frequency of action potentials during stimulus minus baseline), 4A” value in assay [10] is listed as “+ (+, >50 spikes/second)”. The “odor response (frequency of action potentials during stimulus minus baseline), 4C” value in assay [11] is reported as “+ (+, >50 spikes/second)”. Besides, the “odor response (frequency of action potentials during stimulus minus baseline), 6B” value in [12] was 0.
For `CCCSSCCC` [dipropyl disulfide], the “odor response (frequency of action potentials during stimulus minus baseline), 2C” value in assay [1] worked out at 0. For the same molecule, in [2], the “odor response (frequency of action potentials during stimulus minus baseline), 4B” value was “+ (+, >50 spikes/second)”. In assay [3], the “odor response (frequency of action potentials during stimulus minus baseline), 2B” value was 0. Moreover, the “odor response (frequency of action potentials during stimulus minus baseline), 2A” value in assay [4] is given as 0. Moreover, the “odor response (frequency of action potentials during stimulus minus baseline), 7C” value in [5] is listed as 0. Further, in [6], the “odor response (frequency of action potentials during stimulus minus baseline), 6C” value is 0. In addition, the “odor response (frequency of action potentials during stimulus minus baseline), 7B” value in assay [7] worked out at 0. Moreover, the “odor response (frequency of action potentials during stimulus minus baseline), 7A” value in assay [8] is 0. Also, the “odor response (frequency of action potentials during stimulus minus baseline), 6A” value in assay [9] is 0. Moreover, in assay [10], the “odor response (frequency of action potentials during stimulus minus baseline), 4A” value was 0. Moreover, in assay [11], the “odor response (frequency of action potentials during stimulus minus baseline), 4C” value is 0. Also, in [12], the “odor response (frequency of action potentials during stimulus minus baseline), 6B” value was “++ (++, >100 spikes/second)”.

Source of the values: US20180055032A1, “ODORS FOR PSYLLID TRAPPING, REPELLING AND CONTROL” (The Regents of the University of California, priority 2011, published 2018).
